Experimental data reported in ChEMBL document CHEMBL3988442, “University of Dundee, Small-Polar-MMV Screening Library” (2021).

How the values were obtained:
[1] = microbe, parasite or virus in culture; conditions: Mycobacterium tuberculosis, 96 h, read-out: pIC50 (converted)
[2] = microbe, parasite or virus in culture; conditions: Mycobacterium tuberculosis, 72 h, read-out: pIC50 (converted)

SMILES	IC50 [1] [µM]	IC50 [2] [µM]
NCC(=O)N(Cc1cccs1)Cc1cccs1	68.7	114
Nc1nccnc1C(=O)NCc1ccccc1	> 501	294
C=C(C)CN1CCN(c2ccccn2)CC1	> 501	> 501
CCN(CC)S(=O)(=O)c1ccc(CNC(=O)c2cc(C)on2)cc1	26.2	> 50.1
CC(C)c1ccoc1C(=O)N(C)c1cc(C#N)ccn1	> 501	140
NCCSCc1ccccc1F	275	231
CC(c1ccccc1)N(C)C(=O)CN1CCCc2cccc(F)c21 (stereo not given)	> 50.1	31.2
CCN(C1CC1)S(=O)(=O)c1ccc2c(c1)OCCO2	> 501	162
CC(C)c1cccc(NC(=O)CN2CCC(O)CC2)c1	359	116
CCNc1cccc(OC)c1	144	109
COc1cccc(NC(CN)c2ccccc2)c1 (stereo not given)	> 501	187
CNC(=O)C1CN(C(=O)c2cccs2)CCN(S(C)(=O)=O)C1 (stereo not given)	> 50.1	> 50.1
O=S(=O)(CCN1CCCC(O)C1)c1ccc(Br)cc1 (stereo not given)	174	359
Cc1nc(CCN)cc(NC2CCC2)n1	> 501	145
CN(Cc1ccco1)C(=O)c1cccc(C#N)c1	> 501	> 501
CN(CCN1CCCC1)S(=O)(=O)c1ccccc1	> 501	208
CCCS(=O)(=O)N(C)Cc1cccc(OCC)n1	> 501	367
Cn1nccc1C(=O)N1CCC(Oc2ccccc2)C1 (stereo not given)	161	232
COc1ccc(CSCC(N)=O)cc1Br	262	241
O=C(CCc1ccccc1)N1CC(c2cccnc2)C1	25.3	45.7
CN(C)CCNC(=O)c1ccn(-c2ccc3ccccn23)n1	> 50.1	> 50.1
CC(=O)c1ccc(S(C)(=O)=O)c(N2CCC(C)(C)C2)c1	> 501	> 501
O=S(=O)(Cc1ccc(Br)cc1)NCCO	> 50.1	> 50.1
O=S(=O)(CCN1CC[C@@H](O)C1)c1cccc(Br)c1	146	112
CO[C@H]1CNCC1NC(=O)c1cc2ccccc2n1C (stereo not given in full)	> 501	359
CNCc1nc2c(s1)CCCC2	259	221
Cc1ncsc1C(=O)NC1CCCCNC1=O (stereo not given)	> 501	> 501

SMILES	IC50 [1] [µM]	IC50 [2] [µM]
CN(C)c1ccc(CNC(=O)C2CCCO2)cc1 (stereo not given)	197	219
COCCOc1ccc(NC(=O)OCC(F)(F)F)cn1	110	208
COC(=O)c1ccc(-c2noc(CN(CCO)Cc3cccs3)n2)cc1	> 50.1	47.5
Cc1ccc(S(=O)(=O)CCC(=O)NC(N)=O)cc1	> 501	155
CCOCCN(C)C(c1cccnc1)c1ccc(F)cc1F (stereo not given)	> 50.1	> 50.1
OCCCN1CCCN(Cc2ccc(F)cc2)CC1	> 501	186
CC(NC(=O)CSc1nnnn1C1CC1)c1cccs1 (stereo not given)	> 501	433
CNC(=O)COC(=O)Cc1ccc(Br)cc1	> 501	> 501
CCn1ncnc1CN1CC(Oc2ccccc2)C1	> 501	151
CN(CCOc1ccc(Cl)cc1)S(C)(=O)=O	178	142
CCC(CO)Nc1nccc(C(F)(F)F)n1 (stereo not given)	> 501	> 501
CC(C)c1ccc(CN2C(=O)C3(CCNCC3)Nc3ccccc32)cc1	22.3	32
COc1cccc(C(=O)NCc2ccoc2C)n1	> 501	364
OCCOCCN1CCC(=Cc2ccccc2)CC1	242	203
CC(C)n1ccc(CC(=O)N2CCCC2)n1	> 501	> 501
Cc1nc(-c2ccc(NCCc3ccc(O)cc3)nc2)[nH]c(=O)c1C	32.1	42.1
CN(Cc1cccnc1)C(=O)c1cc(Cl)c[nH]1	333	281
Clc1ccc(Cc2nc(CNCCn3cccn3)cs2)cc1	24.8	22.8
COc1ccc(N2CCCN(CCC(N)=O)CC2)cc1	240	345
Cc1cc(C(=O)Nc2ccc3c(c2)CCCN3)on1	> 501	150
O=C(c1cc(COc2ccc3c(c2)OCO3)[nH]n1)N1CCCCO1	17.8	> 50.1
COCCCOC1CN(C(=O)c2ccc(Cl)cn2)C1	84.6	2.73
CC(C)Oc1cccc(-c2cnn(CCC(N)=O)c2)c1	382	264
Cc1cnn(CCNCc2ccc3c(c2)OCCO3)c1	211	127
Cc1cccc(NCCNC(=O)c2ccccc2)n1	> 501	> 501
CC(C)c1nccn1C1CCCN(C(=O)c2ccc3[nH]nnc3c2)C1 (stereo not given)	> 50.1	> 50.1
Cc1ccc(Cl)c(NC(=O)NC2(C)CCOC2)c1 (stereo not given)	> 50.1	> 50.1

SMILES	IC50 [1] [µM]	IC50 [2] [µM]
O=C(Cn1cccn1)N1CCC(Cn2cc(-c3ccsc3)nn2)CC1	> 50.1	> 50.1
FC(F)(F)c1ccc(-c2cnc(C3CCCN3)cn2)cc1 (stereo not given)	2.02	13.9
CCC(C)(C)NC(=O)c1nnn(-c2ccccc2)c1C	282	311
CN(C1(C#N)CCC1)S(=O)(=O)c1cccs1	> 501	323
CS(=O)(=O)CCN1CCC(Oc2ccc(F)cc2)CC1	280	221
Cc1cn(Cc2nc(CC(C)C)nn2-c2ccccn2)c(=O)[nH]c1=O	> 50.1	> 50.1
CCCOC(=O)C(C)NC(=O)c1cccs1 (stereo not given)	287	249
O=C(NCCSc1ccccn1)C1CCCCO1 (stereo not given)	> 501	476
O=C(c1cc(C2CC2)on1)N1CC(O)(C2CC2)C1	44.5	47.3
CCC(=O)c1ccc(CN)cc1	264	> 501
O=C(Cc1ccc2c(c1)CCCC2)Nc1cccnc1N1CCSCC1	9.97	12
CCC(N)c1ccccc1OC (stereo not given)	> 501	267
Cc1nc(-c2cccc(N3CCC(N4CCCC4)CC3)c2)cs1	24.2	> 50.1
O=C(c1cnsn1)N1CCN(Cc2ccc(Cl)s2)CC1	71	45.6
Nc1cc(-c2cccnc2)on1	> 501	284
CC(C)c1nccn1C(C)C(=O)N1CCN(c2cnccn2)CC1 (stereo not given)	> 50.1	> 50.1
CC(C)N1CC(C(=O)NCc2ccc(S(=O)(=O)N(C)C)cc2)CC1=O (stereo not given)	> 50.1	> 50.1
NS(=O)(=O)NCC1CCN(c2cccc(Br)c2)C1 (stereo not given)	230	247
NCCNS(=O)(=O)c1cccc(I)c1	> 501	326
O=C(Oc1nsnc1N1CCCCC1)N1CCOCC1	432	168
c1ccc(Oc2cccc(NCc3csnn3)c2)nc1	171	298
CN(Cc1ccc2c(c1)OCO2)C(=O)Cc1cccs1	239	199
CC(C)CSCCSc1nnc(N)[nH]1	> 501	240
CC(C)COc1cncc(N(C)C2CCN(c3ncccn3)CC2)n1	40.6	30
COc1ccccc1-c1ncc(CN2C[C@@H](N(C)C)[C@H](C(C)C)C2)s1	25.4	31.4
CC(=O)Nc1ccc(C(=O)N(C)Cc2cccs2)cc1	272	307
COc1cccc(C(=O)Nc2ccnn2C(C)C)c1	> 501	259

SMILES	IC50 [1] [µM]	IC50 [2] [µM]
CCc1ccc(CN2CCOC(Cc3cccc(F)c3)C2)nc1 (stereo not given)	12.3	36.3
CNC(=O)Nc1ccc(OC)c(OCCOC)c1	219	138
CCC(C)(C)NC(=O)c1ccn(-c2ccccc2F)n1	350	361
CCN(Cc1cnn(C)c1)C[C@H]1CC[C@@H](Cc2cccc(CN)c2)O1	> 50.1	> 50.1
N#Cc1cccnc1N1CCCNCC1	> 501	480
COCCN(C)CCNC(=O)c1ccc(Cl)cc1	> 501	165
COc1cc(Cl)cc(CN2CCCC(N3CCCC3)C2)c1OC (stereo not given)	28.3	23.3
NCc1cc(Cl)ccn1	301	156
Cc1ccc(F)c(S(=O)(=O)N2C[C@H](C3CC3)[C@@H](N)C2)c1	> 501	> 501
O=C1NC(=O)c2c(O)cccc21	254	196
CC(C)CC(O)C(=O)N1CCN(c2cccnc2)CC1 (stereo not given)	> 501	118
OCCN1CCC2(CCc3cc(-c4ccoc4)ccc32)CC1	24.1	23.5
CN(C)C(=O)c1cc(-c2cccs2)on1	254	> 501
CCc1ccc(S(=O)(=O)N2CC[C@@H](N)C2)cc1CC	> 501	> 501
NCCCNS(=O)(=O)c1ccc(Br)c(F)c1	> 501	189
CC1(C)CNCCC(=O)C1	246	259
CCCNC(=O)c1nnn(-c2ccccc2OC)c1C	6.03	191
CCCC(C)N(C)Cc1nnc(-c2ccco2)o1 (stereo not given)	29.5	5.32
C=C(C)COCCNC(=O)c1c(O)cccc1F	> 501	> 501
Cc1nn(C)c2ncnc(N(C)CC3CCN(CC(C)C)C3)c12 (stereo not given)	> 50.1	> 50.1
CC(C)Oc1ccc(S(=O)(=O)N(C)C(C)CN)cc1 (stereo not given)	273	162
Cc1noc(C(C)Nc2ccc3c(c2)CCC3)n1 (stereo not given)	3.32	5.68
O=C(OCCNc1ncccn1)c1ccc(Cl)s1	> 50.1	29.7
CCc1nc(CN(C)Cc2ncc(-c3cccs3)o2)cs1	31.4	31.1
